Tests used:
PI3Kδ (p110δ/p85α) = target: T1, PI3Kδ (p110δ/p85α) (Homo sapiens, UniProt O00329); assay: PI3Kδ ADP-Glo assay; format: biochemical; details: 20 μM PIP2, 10 μM ATP, 90 minutes
T1 construct: GST (N); made in house; host or cells: Baculovirus-infected Sf9 cells
Experimental: (c) an In Vitro Assay which Determines the Ability of a Test Compound to Inhibit PI3Kδ.
Activity of PI3Kδ was measured using ADP-Glo assay from Promega. PI3Kδ, a complex of N-terminal GST-tagged recombinant full-length human p110δ (GenBank, Accession No. NM_005026) and untagged recombinant full length human p85α (GenBank Accession No. XM—043865) were co-expressed in a Baculovirus infected Sf9 cell expression system. The ADP-Glo assay was performed to measure the amount of ADP generated from ATP hydrolysis coupled with PIP2 phosphorylation by the purified recombinant PI3Kδ (p110δ/p85α). PI3Kδ was incubated with 20 μM PIP2 substrate in the reaction buffer (10 mM Tris-HCl, pH 7.5, 50 mM NaCl, 5 mM MgCl2, 10 μM ATP and 0.5% DMSO) for 90 minutes at room temperature. The ADP generated was then detected by ADP-Glo assay from Promega, a luminescent ADP detection assay. The ADP-Glo assay is performed in two steps; first, after the kinase reaction, ADP-Glo Reagent is added to terminate the kinase reaction and deplete the remaining ATP. Second, the Kinase Detection Reagent is added to simultaneously convert ADP to ATP and allow the newly synthesized ATP to be measured using a luciferase/luciferin reaction.

LN-Cap = assay: Cell proliferation assay (CellTiter-Glo); format: cell-based; details: Homo sapiens, LNCaP; Prostate; 72 hours, 0.5% fetal bovine serum; read-out: antiproliferative activity IC50, LN-Cap
Procedure, shortened: (§1)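 5,000–10,000 cells/well; compound titration, 72 h, 0.5% FBS. ATP luminescence read 30 min after lysis/substrate addition.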

PC-3 = assay: Cell proliferation assay (CellTiter-Glo); format: cell-based; details: Homo sapiens, Prostate, 72 hours, 0.5% fetal bovine serum, read-out: antiproliferative activity IC50, PC-3
Procedure, shortened: as §1

OVCAR-5 = assay: Cell proliferation assay (CellTiter-Glo); format: cell-based; details: Homo sapiens, Ovarian, 72 hours, 0.5% fetal bovine serum, read-out: antiproliferative activity IC50, OVCAR-5
Procedure, shortened: as §1

T1 sequence (O00329 whole entry): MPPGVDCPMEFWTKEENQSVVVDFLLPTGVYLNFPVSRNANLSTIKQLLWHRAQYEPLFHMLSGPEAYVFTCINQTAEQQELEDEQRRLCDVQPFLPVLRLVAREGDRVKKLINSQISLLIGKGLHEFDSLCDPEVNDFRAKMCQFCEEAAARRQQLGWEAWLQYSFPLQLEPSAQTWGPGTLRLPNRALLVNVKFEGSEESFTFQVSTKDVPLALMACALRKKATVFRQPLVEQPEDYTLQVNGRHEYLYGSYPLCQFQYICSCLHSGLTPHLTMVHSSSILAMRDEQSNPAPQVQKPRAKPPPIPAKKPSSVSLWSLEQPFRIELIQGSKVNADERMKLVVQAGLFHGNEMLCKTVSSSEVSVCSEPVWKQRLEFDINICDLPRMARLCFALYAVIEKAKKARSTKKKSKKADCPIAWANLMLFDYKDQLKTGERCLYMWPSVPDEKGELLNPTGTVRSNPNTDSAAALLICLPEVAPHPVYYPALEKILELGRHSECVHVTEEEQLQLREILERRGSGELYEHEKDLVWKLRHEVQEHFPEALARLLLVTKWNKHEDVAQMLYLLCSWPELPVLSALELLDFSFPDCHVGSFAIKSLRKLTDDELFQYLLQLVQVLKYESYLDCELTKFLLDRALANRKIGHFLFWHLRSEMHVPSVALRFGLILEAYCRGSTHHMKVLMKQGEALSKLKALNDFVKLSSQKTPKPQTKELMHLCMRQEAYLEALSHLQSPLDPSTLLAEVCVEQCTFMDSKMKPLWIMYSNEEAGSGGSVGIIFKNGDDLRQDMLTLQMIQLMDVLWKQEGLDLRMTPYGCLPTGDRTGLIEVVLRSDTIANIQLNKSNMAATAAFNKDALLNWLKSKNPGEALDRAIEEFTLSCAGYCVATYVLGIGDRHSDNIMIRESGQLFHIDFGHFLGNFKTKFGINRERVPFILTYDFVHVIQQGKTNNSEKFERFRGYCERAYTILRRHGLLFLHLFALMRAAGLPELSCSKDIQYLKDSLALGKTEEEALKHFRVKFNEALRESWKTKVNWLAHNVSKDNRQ
T1 sequence (P27986 whole entry partner): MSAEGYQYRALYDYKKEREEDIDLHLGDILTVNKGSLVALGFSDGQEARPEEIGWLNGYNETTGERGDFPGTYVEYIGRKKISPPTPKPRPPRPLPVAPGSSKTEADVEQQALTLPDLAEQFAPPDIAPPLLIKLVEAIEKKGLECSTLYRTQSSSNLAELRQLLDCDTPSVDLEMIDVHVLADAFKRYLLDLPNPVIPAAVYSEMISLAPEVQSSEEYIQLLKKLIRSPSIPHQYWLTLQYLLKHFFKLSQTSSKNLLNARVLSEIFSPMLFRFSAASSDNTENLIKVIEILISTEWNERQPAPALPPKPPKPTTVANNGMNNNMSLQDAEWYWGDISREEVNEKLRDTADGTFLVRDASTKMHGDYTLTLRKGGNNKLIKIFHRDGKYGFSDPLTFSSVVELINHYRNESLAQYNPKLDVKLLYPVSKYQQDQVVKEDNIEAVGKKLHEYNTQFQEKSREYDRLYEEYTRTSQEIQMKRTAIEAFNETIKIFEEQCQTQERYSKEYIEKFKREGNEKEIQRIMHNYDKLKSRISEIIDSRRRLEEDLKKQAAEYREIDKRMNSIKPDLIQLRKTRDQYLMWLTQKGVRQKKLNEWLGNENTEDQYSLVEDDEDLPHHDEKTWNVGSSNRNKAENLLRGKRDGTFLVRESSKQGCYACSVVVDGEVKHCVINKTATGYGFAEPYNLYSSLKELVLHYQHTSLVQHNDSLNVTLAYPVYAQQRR

With `CN(Cc1cc2nc(-c3cccc4[nH]ncc34)nc(N3CCOCC3)c2s1)c1ncc(C(=O)NO)cn1` [Compound 54, 2-(((2-(1H-indazol-4-yl)-4-morpholinothieno[3,2-d]pyrimidin-6-yl)methyl)(methyl)amino)-N-hydroxypyrimidine-5-carboxamide] the IC50 (PI3Kδ (p110δ/p85α)) was < 100 nM and the melting point was 197 to 200 °C.

For `CNc1ccc(-c2nc(N3CCOCC3)c3sc(CN(C)c4ncc(C(=O)NO)cn4)cc3n2)cn1` [Compound 111, N-Hydroxy-2-(methyl((2-(6-(methylamino)pyridin-3-yl)-4-morpholinothieno[3,2-d]pyrimidin-6-yl)methyl)amino)pyrimidine-5-carboxamide], the IC50 (PI3Kδ (p110δ/p85α)) was < 100 nM.

For `CN(Cc1cc2nc(-c3ccc(N)cc3)nc(N3CCOCC3)c2s1)c1ncc(C(=O)NO)cn1` [Compound 150, 2-(((2-(4-aminophenyl)-4-morpholinothieno[3,2-d]pyrimidin-6-yl)methyl)(methyl)amino)-N-hydroxypyrimidine-5-carboxamide], the IC50 (LN-Cap) was < 10 nM, the IC50 (PC-3) was 10 to 100 nM and the IC50 (OVCAR-5) was < 10 nM.
